According to patent publication US11753407B2, “Compounds for treating spinal muscular atrophy” (PTC Therapeutics, Inc., priority 2012, dated 2023):

What was measured:
[1] = test system: Smn protein in SMA patient fibroblast cells (GM03813); assay: Smn protein assay in cultured cells (SMN HTRF); type: cell-based, human; settings: 48 hours; for Smn protein expression: SMA Type 1 patient fibroblast cells, SMN HTRF assay (FIG. 8); for EC1.5x for Smn protein expression / maximum fold (Fold) increase of Smn protein: SMA patient fibroblast cells; for EC1.5x for Smn protein expression: 7-point concentration curve, SMN HTRF, concentration producing 1.5 times Smn protein vs DMSO vehicle control; for maximum fold (Fold) increase of Smn protein: 7-point concentration data, fold relative to vehicle control
Outline: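 Smn protein abundance in treated SMA fibroblasts was measured by HTRF after 48 h compound exposure. The reported EC1.5× is the concentration producing 1.5 times vehicle Smn levels.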

[2] = test system: Smn protein produced from the SMN2 gene; assay: Smn protein in tissues of neonatal Δ7 SMA mice; type: in vivo; settings: neonatal SMA Δ7 homozygous knockout mice, IP QD PND 3 to PND 9, brain, spinal cord
Protocol: This Smn protein assay compares tissues from test compound treated mice with those from DMSO vehicle treated mice to determine the increase in levels of Smn protein produced from the human SMN2 gene.
Protocol. The tissue samples in Safe-Lock tubes are weighed and the volume of RIPA buffer containing the protease inhibitor cocktail is added based on the weight to volume ratios for each type of tissue: Brain (50 mg/mL), Muscle (50 mg/mL) and Spinal Cord (25 mg/mL).
Tissues are homogenized using the TissueLyzer by bead milling. 5 mm stainless steel beads are added to the sample and shaken vigorously for 5 minutes at 30 Hz in the TissueLyzer. […] Fluorescence for each well of the plate at 665 nm and 620 nm is measured on an EnVision multilabel plate reader (Perkin-Elmer). The total protein in the tissue homogenate is measured using the BCA assay according to the manufacturer's protocol.
The normalized fluorescence signal is calculated for each sample, Blank and vehicle control well by dividing the signal at 665 nm by the signal at 620 nm. Normalizing the signal accounts for possible fluorescence quenching due to the matrix effect of the tissue homogenate. […] The ΔF value for each tissue sample well is divided by the total protein quantity (determined using the BCA assay) for that tissue sample. […]

SMILES | Smn protein expression [1] | EC1.5x for Smn protein expression [1] | maximum fold (Fold) increase of Smn protein [1] | total protein normalized Smn level ([2]; muscle, skin (FIGS. 12a-d)) | total protein normalized Smn level ([2]; muscle (FIGS. 12e-g))
COc1ccc(-c2cc(=O)n3cc(N4CCNCC4)ccc3n2)cc1OC [Cpd 6, 2-(3,4-dimethoxyphenyl)-7-(piperazin-1-yl)-4H-pyrido[1,2-a]pyrimidin-4-one] | dose dependent increase in Smn protein expression | *** (an EC1.5× between >0.3 μM and ≤1 μM is indicated by three stars (***)) | **** (a fold increase between >1.5 and ≤1.65 is indicated by four stars (****)) | dose dependently increased in brain, spinal cord, muscle, and skin tissues | –
Cc1cn2nc(-c3cc(=O)n4cc(N5CCN(C)CC5)ccc4n3)cc2c(C)n1 [Cpd 170, 2-(4,6-dimethylpyrazolo[1,5-a]pyrazin-2-yl)-7-(4-methylpiperazin-1-yl)-4H-pyrido[1,2-a]pyrimidin-4-one] | dose dependent increase in Smn protein expression | **** (an EC1.5x≤0.3 μM is indicated by four stars (****)) | ***** (a fold increase >1.65 is indicated by five stars (*****)) | – | dose dependently increased
